Results: patent publication US9670204B2, “Compounds and pharmaceutical compositions thereof for the treatment of inflammatory disorders” (Galapagos NV, priority 2013, dated 2017)

Biological target: T1, hENPP2 (UniProtKB/SwissProt Q13822) (Homo sapiens (Human), UniProt Q13822)
Assay: fluorescent hENPP2 biochemical assay, FS-3 as substrate
Details: read-out: FS3-IC50
Procedure: Compound IC50 values are determined in a fluorescent hENPP2 (UniProtKB/SwissProt Sequence ref Q13822) biochemical assay using the fluorogenic autotaxin substrate FS-3 as substrate. FS-3 is a doubly labeled analog of LPC wherein the fluorophore is quenched through intramolecular energy transfer. Without hENPP2, the emission of the probe is quenched. If the substrate is hydrolyzed by hENPP2, the emission of the probe is not quenched anymore resulting in a fluorescence increase.
The enzyme is diluted in 50 mM Tris-HCl pH 8.0, 250 mM NaCl, 5 mM KCl, 1 mM MgCl2, 1 mM CaCl2, 0.1% fatty acid free BSA in a total volume of 20 μL. Enzyme mixture is added to compounds and the resulting mixture is incubated for 30 min at room temperature under shaking. The reaction is started by the addition of 20 μL of 0.75 μM FS-3 diluted in the same buffer as described above and the mixture is incubated at 30° C. for 30 min. Fluorescence is read on the Envision (Excitation 485 nm, emission 520 nm).

| SMILES | IC50 [nM] |
| --- | --- |
| CCc1nc2ccc(C3=CCN(S(=O)(=O)C(F)(F)F)CC3)cn2c1N(C)c1nc(-c2ccc(Cl)cc2)cs1 [Compound 210, 4-(4-chlorophenyl)-N-(2-ethyl-6-(1-(trifluoromethylsulfonyl)-1,2,3,6-tetrahydropyridin-4-yl)imidazo[1,2-a]pyridin-3-yl)-N-methylthiazol-2-amine] | 0.01 to 100 |
| CN(c1nc(-c2ccc(Cl)cc2)cs1)c1c(CC(F)(F)F)nc2ccc(C3=CCN(S(C)(=O)=O)CC3)cn12 [Compound 185, 4-(4-chlorophenyl)-N-methyl-N-(6-(1-(methylsulfonyl)-1,2,3,6-tetrahydropyridin-4-yl)-2-(2,2,2-tetrahydropyridin-4-yl)-2-(2,2,2-trifluoroethyl)imidazo [1,2-a]pyridin-3-yl) thiazol-2-amine] | 0.01 to 100 |
| CCC(=O)N1CCN(c2ccc3nc(CC)c(N(C)c4nc(-c5ccc(F)cc5)cs4)n3c2)CC1 [Compound 51, 1-(4-(2-ethyl-3-((4-(4-fluorophenyl)thiazol-2-yl)(methyl)amino)imidazo[1,2-a]pyridin-6-yl)piperazin-1-yl)propan-1-one] | 0.01 to 100 |
| CCc1nc2ccc(C3=CCSCC3)cn2c1N(C)c1nc(-c2ccc(Cl)cc2)cs1 [Compound 231, 4-(4-chlorophenyl)-N-(6-(3,6-dihydro-2H-thiopyran-4-yl)-2-ethylimidazo[1,2-a]pyridin-3-yl)-N-methylthiazol-2-amine] | 0.01 to 100 |
| CCc1nc2ccc(N3CCNCC3)cn2c1N(C)c1nc(-c2ccc(F)cc2)cs1 [Gen-10-e] | 0.01 to 100 |
| CCc1nc2ccc(C3=NCC(C)O3)cn2c1N(C)c1nc(-c2ccc(F)cc2)cs1 (stereo not drawn) [Compound 236, N-(2-ethyl-6-(5-methyl-4,5-dihydrooxazol-2-yl)imidazo[1,2-a]pyridin-3-yl)-4-(4-fluorophenyl)-N-methylthiazol-2-amine] | 100 to 500 |
| CCc1nc2ccc(C3=NC(C)CO3)cn2c1N(C)c1nc(-c2ccc(F)cc2)cs1 (stereo not drawn) [Compound 237, N-(2-ethyl-6-(4-methyl-4,5-dihydrooxazol-2-yl)imidazo[1,2-a]pyridin-3-yl)-4-(4-fluorophenyl)-N-methylthiazol-2-amine] | 0.01 to 100 |
| CCc1nc2ccc(C3CCN(CC4CCCCC4)CC3)cn2c1N(C)c1nc(-c2ccc(F)cc2)cs1 [Compound 235, N-(6-(1-(cyclohexylmethyl)piperidin-4-yl)-2-ethylimidazo[1,2-a]pyridin-3-yl)-4-(4-fluorophenyl)-N-methylthiazol-2-amine] | 0.01 to 100 |
| CCc1nc2ccc(N3CCC(F)(F)CC3)cn2c1N(C)c1nc(-c2ccc(F)cc2)cs1 [Compound 232, N-(6-(4,4-difluoropiperidin-1-yl)-2-ethylimidazo[1,2-a]pyridin-3-yl)-4-(4-fluorophenyl)-N-methylthiazol-2-amine] | 0.01 to 100 |
| CCc1nc2ccc(C3=CCN(C(=O)OC(C)(C)C)CC3)cn2c1N(C)c1nc(-c2ccc(Cl)cc2)cs1 [Compound 230, tert-butyl 4-(3-((4-(4-chlorophenyl)thiazol-2-yl)(methyl)amino)-2-ethylimidazo[1,2-a]pyridin-6-yl)-5,6-dihydropyridine-1(2H)-carboxylate] | 0.01 to 100 |
| CCc1nc2ccc(C3=NC(C(=O)O)CO3)cn2c1N(C)c1nc(-c2ccc(F)cc2)cs1 (stereo not drawn) [Compound 238, 2-(2-ethyl-3-((4-(4-fluorophenyl)thiazol-2-yl)(methyl)amino)imidazo[1,2-a]pyridin-6-yl)-4,5-dihydro-oxazole-4-carboxylic acid] | 100 to 500 |
| CCc1nc2ccc(N3CCN(C(=O)OC(C)(C)C)CC3)cn2c1N(C)c1nc(-c2ccc(Cl)cc2)cs1 [Compound 234, tert-butyl 4-(3-((4-(4-chlorophenyl)thiazol-2-yl)(methyl)amino)-2-ethylimidazo[1,2-a]pyridin-6-yl)piperazine-1-carboxylate] | 0.01 to 100 |
| CCc1nc2ccc(C3CCN(S(C)(=O)=O)CC3)cn2c1N(C)c1nc(-c2ccc(F)cc2)c(Br)s1 [Compound 135, 5-bromo-N-(2-ethyl-6-(1-(methylsulfonyl)piperidin-4-yl)imidazo [1,2-a]pyridin-3-yl)-4-(4-fluorophenyl)-N-methylthiazol-2-amine] | 0.01 to 100 |

Biological target: T1, hENPP2
Assay: hENPP2 biochemical assay, LPC as substrate
Details: LPC (palmitoyl 16:0) as substrate
Procedure: The principle of the assay consists in quantifying the released choline with an enzymatic method using choline oxidase and peroxidase. Choline oxydation by choline oxydase releases betaine and peroxide. The latter is quantified in presence of HRP that converts the peroxide detection agent TOOS and 4-aminoantipyrine into quinoneimine dye. The appearance of quinoneimine dye is measured spectrophotometrically at 555 nm and is proportional to the amount of choline released by ENPP2. Inhibition of ENPP2 will result in a decrease of the signal.
Compound IC50 values are determined in a hENPP2 (UniProtKB/SwissProt Sequence ref Q13822) biochemical assay using LPC as substrate.
The enzyme is diluted in 50 mM Tris-HCl pH 8.5, 500 mM NaCl, 5 mM KCl, 10 mM CaCl2, 0.1% fatty acid free BSA in a total volume of 10 μL. the reaction is started by the addition of 10 μL of 150 μM LPC (palmitoyl 16:0) diluted in the same buffer as described above and the mixture is incubated at 37° C. for 30 min. The reaction is terminated and choline quantified by the addition of a 25 μL of a mixture containing 0.6 U/mL of choline oxidase, 0.6 U/mL of peroxydase, 1.8 mM TOOS, 1.2 mM amino-antipyrine, 20 mM EGTA (stop-developer solution) diluted in the buffer described above. […] is read on the Envision after an incubation of 30 min at room temperature (Excitation 555 nm, excitation light=70%).

| SMILES | IC50 [nM] |
| --- | --- |
| CCc1nc2ccc(C3=CCN(S(=O)(=O)C(F)(F)F)CC3)cn2c1N(C)c1nc(-c2ccc(Cl)cc2)cs1 [Compound 210, 4-(4-chlorophenyl)-N-(2-ethyl-6-(1-(trifluoromethylsulfonyl)-1,2,3,6-tetrahydropyridin-4-yl)imidazo[1,2-a]pyridin-3-yl)-N-methylthiazol-2-amine] | > 1000 |
| CN(c1nc(-c2ccc(Cl)cc2)cs1)c1c(CC(F)(F)F)nc2ccc(C3=CCN(S(C)(=O)=O)CC3)cn12 [Compound 185, 4-(4-chlorophenyl)-N-methyl-N-(6-(1-(methylsulfonyl)-1,2,3,6-tetrahydropyridin-4-yl)-2-(2,2,2-tetrahydropyridin-4-yl)-2-(2,2,2-trifluoroethyl)imidazo [1,2-a]pyridin-3-yl) thiazol-2-amine] | > 1000 |
| CCC(=O)N1CCN(c2ccc3nc(CC)c(N(C)c4nc(-c5ccc(F)cc5)cs4)n3c2)CC1 [Compound 51, 1-(4-(2-ethyl-3-((4-(4-fluorophenyl)thiazol-2-yl)(methyl)amino)imidazo[1,2-a]pyridin-6-yl)piperazin-1-yl)propan-1-one] | > 1000 |
| CCc1nc2ccc(N3CCN(C(=O)C4CC(=O)N(Cc5ccccc5)C4)CC3)cn2c1N(C)c1nc(-c2ccc(F)cc2)cs1 (stereo not drawn) [Compound 205, 1-Benzyl-4-[4-(2-ethyl-3-{[4-(4-fluoro-phenyl)-thiazol-2-yl]-methyl-amino}-imidazo[1,2-a]pyridin-6-yl)-piperazine-1-carbonyl]-pyrrolidin-2-one] | 500 to 1000 |
| CCc1nc2ccc(N3CCN(CC(=O)N4CC(F)C4)CC3)cn2c1N(C)c1nc(-c2ccc(F)cc2)cs1 [Compound 28, 2-(4-(2-ethyl-3-((4-(4-fluorophenyl)thiazol-2-yl)(methyl)amino)imidazo[1,2-a]pyridin-6-yl)piperazin-1-yl)-1-(3-fluoroazetidin-1-yl)ethanone] | 100 to 500 |
| CCc1nc2ccc(C3CCN(CC4CN(C)C(=O)O4)CC3)cn2c1N(C)c1nc(-c2ccc(F)cc2)cs1 (stereo not drawn) [Compound 195, 5-((4-(2-ethyl-3-((4-(4-fluorophenyl)thiazol-2-yl)(methyl)amino)imidazo[1,2-a]pyridin-6-yl)piperidin-1-yl)methyl)-3-methyloxazolidin-2-one] | > 1000 |
| CCc1nc2ccc(C3CCN(S(C)(=O)=O)CC3)cn2c1N(C)c1nc(-c2ccc(F)c(F)c2)cs1 [Compound 83, 4-(3,4-difluorophenyl)-N-(2-ethyl-6-(1-(methylsulfonyl)piperidin-4-yl)imidazo [1,2-a]pyridin-3-yl)-N-methylthiazol-2-amine] | > 1000 |
| CCc1nc2ccc(C3CCN(C(=O)CCN(C)C)CC3)cn2c1N(C)c1nc(-c2ccc(F)cc2)cs1 [Compound 130, 3-(dimethylamino)-1-(4-(2-ethyl-3-((4-(4-fluorophenyl)thiazol-2-yl)(methyl)amino)imidazo[1,2-a]pyridin-6-yl)piperidin-1-yl)propan-1-one] | 100 to 500 |
| CCc1nc2ccc(C3CCN(C(=O)CN(C)C)CC3)cn2c1N(C)c1nc(-c2ccc(F)cc2)c(CO)s1 [Compound 153, 2-(dimethylamino)-1-(4-(2-ethyl-3-((4-(4-fluorophenyl)-5-(hydroxymethyl)thiazol-2-yl)(methyl)amino)imidazo[1,2-a]pyridin-6-yl)piperidin-1-yl) ethanone] | 500 to 1000 |
| CCc1nc2ccc(C3=CCN(S(C)(=O)=O)CC3)cn2c1N(C)c1nc(-c2ccc(C(C)(C)C)cc2)cs1 [Compound 70, 4-(4-tert-butylphenyl)-N-(2-ethyl-6-(1-(methylsulfonyl)-1,2,3,6-tetrahydropyridin-4-yl)imidazo[1,2-a]pyridin-3-yl)-N-methylthiazol-2-amine] | > 1000 |
| CCc1nc2ccc(N3CCN(CC(=O)N4CCOCC4)CC3)cn2c1N(C)c1nc(-c2ccc(F)cc2)cs1 [Compound 32, 2-(4-(2-ethyl-3-((4-(4-fluorophenyl)thiazol-2-yl)(methyl)amino)imidazo[1,2-a]pyridin-6-yl)piperazin-1-yl)-1-morpholinoethanone] | 100 to 500 |
